No end group written: not given here.
Experiments:
Assay in all cases: biochemical
Assay type in all cases: binding
A*6802 = A*6802 (Homo sapiens, UniProt P04439, A269V/D140Y/D185E/E176V/E277Q/E87N/F33Y/G231S/I121R/I166T/I218V/L180W/L300P/L318F/N151K/P208A/P217A/Q86R/R138H/R169H/S129P/T345S/V36M)
A*0203 = A*0203 (Homo sapiens, UniProt P04439, A173T/D140Y/D185E/D98H/E277Q/G131W/G231S/I119V/I121R/I166T/I218V/L180W/L300P/L318F/N151K/N90K/P208A/P217A/Q86G/Q94H/R138H/R169H/T345S)
HLA-A*0201 (HLA-A2.1) = HLA-A*0201 (HLA-A2.1) (Homo sapiens, UniProt P04439, D140Y/D185E/D98H/E176V/E277Q/G131W/G231S/I119V/I121R/I166T/I218V/L300P/L318F/N151K/N90K/P208A/P217A/Q86G/Q94H/R138H/R169H/T345S)
A*0202 = A*0202 (Homo sapiens, UniProt P04439, D140Y/D185E/D98H/E176V/E277Q/G131W/G231S/I119L/I121R/I166T/I218V/L180W/L300P/L318F/N151K/N90K/P208A/P217A/Q67R/Q86G/Q94H/R138H/R169H/T345S)

## CC[C@H](C)[C@H](NC(=O)[C@@H](NC(=O)[C@H](CC(C)C)NC(=O)[C@@H](N)CS)[C@@H](C)O)C(=O)N[C@@H](Cc1c[nH]cn1)C(=O)N[C@@H](Cc1ccc(O)cc1)C(=O)N[C@@H](CC(N)=O)C(=O)N[C@@H](Cc1ccc(O)cc1)C(=O)N[C@H](C(=O)O)C(C)C [Peptide 1323.07]
A*6802
  IC50: 640 nM
A*0203
  IC50: 65 nM
HLA-A*0201 (HLA-A2.1)
  IC50: 270 nM
A*0202
  IC50: 216 nM

## AIFGVNPTI [Peptide 86.0178]
A*6802
  IC50: 3540 nM
A*0203
  IC50: 324 nM
HLA-A*0201 (HLA-A2.1)
  IC50: 1820 nM
A*0202
  IC50: 13 nM

## FLKGCIISYV [Peptide 1578.43]
A*6802
  IC50: 795 nM
A*0203
  IC50: 2 nM
HLA-A*0201 (HLA-A2.1)
  IC50: 341 nM
A*0202
  IC50: 0.85 nM

## GVNLSLSCHAV [Peptide 9013.0311]
A*6802
  IC50: 947 nM
A*0203
  IC50: 2590 nM
HLA-A*0201 (HLA-A2.1)
  IC50: 2090 nM
A*0202
  IC50: 63 nM

## ILAEAMSKA [Peptide 1516.09]
A*6802
  IC50: 2650 nM
A*0203
  IC50: 2.8 nM
HLA-A*0201 (HLA-A2.1)
  IC50: 72 nM
A*0202
  IC50: 3.5 nM

## ILNDTGFYTL [Peptide 9013.0150]
A*6802
  IC50: 11300 nM
A*0203
  IC50: 59 nM
HLA-A*0201 (HLA-A2.1)
  IC50: 152 nM
A*0202
  IC50: 2.1 nM

## ILYPNASLL [Peptide 9013.0030]
A*6802
  IC50: 14700 nM
A*0203
  IC50: 4.2 nM
HLA-A*0201 (HLA-A2.1)
  IC50: 130 nM
A*0202
  IC50: 1.8 nM

## KLITVSAEL [Peptide 9013.0084]
A*6802
  IC50: > 20000 nM
A*0203
  IC50: 27 nM
HLA-A*0201 (HLA-A2.1)
  IC50: 71 nM
A*0202
  IC50: 3.3 nM

## KLLSKLLCV [Peptide 1578.03]
A*6802
  IC50: > 20000 nM
A*0203
  IC50: 36 nM
HLA-A*0201 (HLA-A2.1)
  IC50: 55 nM
A*0202
  IC50: 68 nM

## KLTPLCVIL [Peptide 1516.15]
A*6802
  IC50: > 20000 nM
A*0203
  IC50: 968 nM
HLA-A*0201 (HLA-A2.1)
  IC50: 356 nM
A*0202
  IC50: 74 nM

## KLTSLCVTL [Peptide 1537.03]
A*6802
  IC50: > 20000 nM
A*0203
  IC50: 91 nM
HLA-A*0201 (HLA-A2.1)
  IC50: 91 nM
A*0202
  IC50: 29 nM

## LLFWNPPTT [Peptide 9013.0007]
A*6802
  IC50: > 20000 nM
A*0203
  IC50: 4.3 nM
HLA-A*0201 (HLA-A2.1)
  IC50: 11 nM
A*0202
  IC50: 15 nM

## LLTFWNPPTTV [Peptide 9013.0259]
A*6802
  IC50: 7540 nM
A*0203
  IC50: 58 nM
HLA-A*0201 (HLA-A2.1)
  IC50: 762 nM
A*0202
  IC50: 67 nM

## LQLSNDNRV [Peptide 9013.0072]
A*6802
  IC50: > 20000 nM
A*0203
  IC50: > 20000 nM
HLA-A*0201 (HLA-A2.1)
  IC50: > 20000 nM
A*0202
  IC50: 1700 nM

## MTANPPIPV [Peptide 1539.01]
A*6802
  IC50: 2 nM
A*0203
  IC50: 2.5 nM
HLA-A*0201 (HLA-A2.1)
  IC50: 2.3 nM
A*0202
  IC50: 7.2 nM

## QQHTQVLFV [Peptide 9013.0102]
A*6802
  IC50: > 20000 nM
A*0203
  IC50: 80 nM
HLA-A*0201 (HLA-A2.1)
  IC50: 2100 nM
A*0202
  IC50: 1420 nM

## RLYVCGIQNSV [Peptide 9013.0335]
A*6802
  IC50: > 20000 nM
A*0203
  IC50: 24 nM
HLA-A*0201 (HLA-A2.1)
  IC50: 170 nM
A*0202
  IC50: 6.3 nM

## SLLTFWNPPV [Peptide 9013.0118]
A*6802
  IC50: 24 nM
A*0203
  IC50: 159 nM
HLA-A*0201 (HLA-A2.1)
  IC50: 208 nM
A*0202
  IC50: 76 nM

## TLESTPFNV [Peptide 9013.0012]
A*6802
  IC50: 241 nM
A*0203
  IC50: 221 nM
HLA-A*0201 (HLA-A2.1)
  IC50: 216 nM
A*0202
  IC50: 19 nM

## TTVTTITVYV [Peptide 9013.0192]
A*6802
  IC50: 17 nM
A*0203
  IC50: 326 nM
HLA-A*0201 (HLA-A2.1)
  IC50: 1040 nM
A*0202
  IC50: 21 nM

## VAWDSVYYM [Peptide 1578.46]
A*6802
  IC50: 5150 nM
A*0203
  IC50: 1330 nM
A*0202
  IC50: 603 nM

## VLAEAMSKA [Peptide 1539.07]
A*6802
  IC50: 4580 nM
A*0203
  IC50: 7.6 nM
HLA-A*0201 (HLA-A2.1)
  IC50: 69 nM
A*0202
  IC50: 3.4 nM

## VLYGPDAPV [Peptide 9013.0052]
A*6802
  IC50: 3260 nM
A*0203
  IC50: 19 nM
HLA-A*0201 (HLA-A2.1)
  IC50: 48 nM
A*0202
  IC50: 2.4 nM

## VQWAYDHDI [Peptide 86.0205]
A*6802
  IC50: > 20000 nM
A*0203
  IC50: > 20000 nM
HLA-A*0201 (HLA-A2.1)
  IC50: 6900 nM
A*0202
  IC50: 6840 nM

## YIDDYLRNL [Peptide 1578.39]
A*6802
  IC50: > 20000 nM
A*0203
  IC50: 380 nM
A*0202
  IC50: 27 nM

— patent publication US9340577B2, “HLA binding motifs and peptides and their uses” (priority 1992, dated 2016)
